Like-named read-outs stand apart in the source and are kept apart here.
How the values were obtained:
[1] = tested on: recombinant NL-RLuc virus (NL4-3 with Renilla Luciferase gene); assay: Inhibition of HIV replication (NL-RLuc luciferase reporter virus in MT-2 cells); type: cell-based; details: NL43, 120 h
Text: Inhibition of HIV Replication:
A recombinant NL-RLuc proviral clone was constructed in which a section of the nef gene from NL4-3 was replaced with the Renilla Luciferase gene. This virus is fully infectious and can undergo multiple cycles of replication in cell culture. In addition, the luciferous reporter provides a simple and easy method for quantitating the extent of virus growth and consequently, the antiviral activity of test compounds. The plasmid pNLRLuc contains the proviral NL-Rluc DNA cloned into pUC18 at the PvuII site. The NL-RLuc virus was prepared by transfection of 293T cells with the plasmid pNLRLuc. Transfections were performed using the LipofectAMINE PLUS kit from Invitrogen (Carlsbad, Calif.) according to the manufacturer and the virus generated was titered in MT-2 cells. For susceptibility analyses, the titrated virus was used to infect MT-2 cells in the presence of compound, and after 5 days of incubation, cells were processed and quantitated for virus growth by the amount of expressed luciferase. Assay media was RPMI 1640 supplemented with 10% heat inactivated fetal bovine serum (FBS), 100 units/ml penicillin G/100 units/ml streptomycin, 10 mM HEPES buffer pH 7.55 and 2 mM L-glutamine. The results from at least 2 experiments were used to calculate the EC50 values. Luciferase was quantitated using the Dual Luciferase kit from Promega (Madison, Wis.). Susceptibility of viruses to compounds was determined by incubation in the presence of serial dilutions of the compound. The 50% effective concentration (EC50) was calculated by using the exponential form of the median effect equation where (Fa)=1/[1+(ED50/drug conc.)^m] (Johnson V A, Byington R T. Infectivity Assay. In Techniques in HIV Research. ed. Aldovini A, Walker B D. 71-76. New York: Stockton Press. 1990).

SMILES	ring closure, yield of all isomers (from C=CCOC1(C)CCN(c2c([C@H](OC(C)(C)C)C(=O)OCC)c(C)nc3cc(-c4cccc(-c5cc(C(=O)OC)ccc5O[C@@H](C)CC=C)c4)nn23)CC1, rcm bond, Hoveyda-Grubbs II (with CuI), DCE, 1.52 mM, 80.0 °C, 3.0 h)	ring closure, yield of all isomers (from COC(=O)[C@@H](OC(C)(C)C)c1c(C)nc2cc(-c3cccc(-c4ccc(F)cc4OCc4cccc(CBr)c4)c3)nn2c1-c1ccc2c(c1)C(O)CCO2, ether bond, NaH, THF, 2.77 mM, 25.0 °C, 5.0 h, 2 steps)	EC50 [1]
CCOC(=O)[C@@H](OC(C)(C)C)c1c(C)nc2cc3nn2c1N1CCC(C)(CC1)OCC=CC[C@H](C)Oc1ccc(C(=O)OC)cc1-c1cccc-3c1	83%		
Cc1nc2cc3nn2c(c1[C@H](OC(C)(C)C)C(=O)O)-c1ccc2c(c1)C(CCO2)OCc1cccc(c1)COc1cc(F)ccc1-c1cccc-3c1 (stereo partly drawn) [Example 23, (2S)-2-(tert-butoxy)-2-{18-fluoro-4-methyl-21, 29, 33-trioxa-5,7,8-triazaoctacyclo[28.6.2.1^6,9.1^10,14.1^23,27.0^2,7.0^15,20.0^34,38]hentetraconta-1(36),2,4,6(41),8,10(40),11,13,15(20),16,18, 23, 25, 27(39),34,37-hexadecaen-3-yl}acetic acid]		7.2%	123 nM
Cc1nc2cc3nn2c(c1[C@H](OC(C)(C)C)C(=O)O)N1CCC(C)(CC1)OCCOCCOc1cc(F)ccc1-c1cccc-3c1 [Example 24, (2S)-2-(tert-Butoxy)-2-{18-fluoro-4,28-dimethyl-21, 24, 27-trioxa-1,5,7,8-tetraazahexacyclo[26.2.2.1^6,9.1^10,14.0^2,7.0^15,20]tetratriaconta-2,4,6(34),8,10(33),11,13,15(20),16,18-decaen-3-yl}acetic acid]			6 nM
Cc1nc2cc3nn2c(c1[C@H](OC(C)(C)C)C(=O)O)N1CCC(C)(CC1)OCCCC[C@H](C)Oc1ccc(C(=O)NCCc2ccc(F)cc2)cc1-c1cccc-3c1 [Example 25, (2S)-2-(tert-Butoxy)-2-[(22S)-17-{[2-(4-fluorophenyl)ethyl]carbamoyl}-4,22,28-trimethyl-21,27-dioxa-1,5,7,8-tetraazahexacyclo[26.2.2.1^6,9.1^10,14.0^2,7.0^15,20]tetratriaconta-2,4,6(34),8,10(33),11,13,15(20),16,18-decaen-3-yl]acetic acid]			4 nM
Cc1nc2cc3nn2c(c1[C@H](OC(C)(C)C)C(=O)O)N1CCC(C)(CC1)OCCCC[C@H](C)Oc1ccc(C(=O)N(C)CCc2ccc(F)cc2)cc1-c1cccc-3c1 [Example 26, (2S)-2-(tert-Butoxy)-2-[(22S)-17-{[2-(4-fluorophenyl)ethyl](methyl)carbamoyl}-4, 22, 28-trimethyl-21, 27-dioxa-1,5,7,8-tetraazahexacyclo[26.2.2.1^6,9.1^10,14.0^2,7.0^15,20]tetratriaconta-2,4,6(34),8,10(33),11,13,15(20),16,18-decaen-3-yl]acetic acid]			3 nM
